Test results published in ChEMBL document CHEMBL5729320, “Indoleamine-2,3-dioxygenase inhibitor, the preparative method and the use thereof” (2022).

Target: Indoleamine 2,3-dioxygenase 1 (Homo sapiens, UniProt P14902)
Assay: Inhibitory Activity Assay: The tested compounds and the reference compounds are dissolved in DMSO to prepare a high concentration of storage solution. The stock solution of reference compound was diluted with DMSO to prepare a 100× solution. In the first column of the working plate, 8 μL above tested compounds and 8 μL 100× reference compound were respectively added as the highest concentration, and then the highest concentrations were subjected to three times dilution to obtain 11 concentrations and prepare 100× solution. 0.5 μL solution was transferred from the above plate to the detection plate. To each well was added 0.5 μL 100× compound solution. For HPE and ZPE control wells, 0.5 μL 100% DMSO was added.25 μL 2×IDO1 (His-tag) enzyme solution (containing L-ascorbic acid, methylene blue, and catalase) was added to each well. 25 μL reaction solution without IDO1 (His-tag) enzyme was added into HPE control well. The test plate was centrifugated at 1000 rpm for 1 minute to mix well. Then, the test plate was incubated at room temperature for 30 minutes. 25 μL above 2× substrate (L-tryptophan) solution was added to each well. The test plate was centrifugated at 1000 rpm for 1 minute to mix well. The detection plate was placed on ELISA (SpectraMax M5e), the temperature was set at 25° C., and the absorbance (OD value) was measured at 320 nm every 10 minutes till 60 minutes.

Chain of Indoleamine 2,3-dioxygenase 1 (P14902 whole entry): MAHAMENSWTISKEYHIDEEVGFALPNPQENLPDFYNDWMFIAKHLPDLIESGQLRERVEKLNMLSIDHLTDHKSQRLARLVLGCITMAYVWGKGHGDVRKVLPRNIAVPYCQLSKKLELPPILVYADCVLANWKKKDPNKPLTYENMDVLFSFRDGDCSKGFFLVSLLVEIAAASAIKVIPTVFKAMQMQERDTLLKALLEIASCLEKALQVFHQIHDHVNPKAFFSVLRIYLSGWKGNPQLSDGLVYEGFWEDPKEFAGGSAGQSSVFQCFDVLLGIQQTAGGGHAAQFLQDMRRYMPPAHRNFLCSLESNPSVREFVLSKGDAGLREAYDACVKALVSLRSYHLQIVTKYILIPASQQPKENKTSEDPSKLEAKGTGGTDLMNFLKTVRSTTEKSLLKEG

Compound: NS(=O)(=O)N1CCC(CSc2nonc2C(=NO)Nc2ccc(F)c(Br)c2)C1 (stereo unspecified)
- IC50: 107 nM
